Solubility data for 1 compound are collected here from patent US20240300975A1, “DIMETHYL-SUBSTITUTED THIAZOLOLACTAM COMPOUND AND USE THEREOF” (D3 Bio (Wuxi) Co., Ltd., priority 2021, published 2024).

Values after ≈ are worked out from the molar mass of the structure shown. Like-named read-outs stand apart in the source and are kept apart here.

This data set is described as follows: Solubility study (HPLC-UV, 24 h shaking). The class given is physicochemical. The conditions noted are these: 25 °C, aqueous buffer, kinetic from dmso stock, 2% DMSO, max 200 μM. Here is the method:
The solubility of a compound was determined to evaluate the solubility property of the compound.
• 1) Buffer A (pH 2.0): 50 mM phosphate buffer, pH 2.0; Buffer B (pH 6.5): 50 mM phosphate buffer, pH 6.5; Buffer C (pH 7.4): 50 mM phosphate buffer, pH 7.4; • 2) Preparation of standard solution: • a) 50% acetonitrile solution and 50% buffer solution were mixed to obtain a diluent; • b) 10 mM (10 μL/compound) compound stock solution was added to the diluent (490 μL/compound) to obtain 200 μM detection standard solution; • c) The 200 μM UV detection standard solution was diluted with 10-fold and 200-fold volume of diluents to obtain 20 μM and 1 μM UV standard solutions, respectively; • d) 1 μM, 20 μM, and 200 μM UV standard solutions were used as standard solutions for solubility assay.
• a) The compound was dissolved in DMSO to prepare a 10 mM stock solution. […] The pH of the corresponding solubility solutions was 2.0, 6.5 and 7.4, respectively. The theoretical maximum concentration of the assay compound is 200 μM with 2% DMSO; • c) The plate was shaken in a shaker at room temperature (25±2° C.) at 600 rpm for 24 hours; • d) 200 μL of the solution was pipetted from the 96-well plate, filtered with suction by a vacuum suction filtration device, and transferred into a new 96-well plate as an assay sample; • e) The compound concentration was determined using HPLC-UV.
• f) Three UV standard solutions from low concentration to high concentration (1 μM, 20 μM, 200 μM) were injected into HPLC, and then the assay sample of the compound to be assayed was injected; • g) The UV chromatographic peaks were integrated, and the solubility of the sample was calculated.

Regarding `Cc1cccc(CN2C(=O)c3nc(-c4nc(Nc5ccnn5C)ncc4C)sc3C2(C)C)n1` [WX001], the solubility (usually how much of the substance goes into solution per volume) at 24 h is, setting by setting: (50 mM phosphate buffer pH 2.0, 25±2° C., read-out: Solubility pH = 2.0) > 200 µM; (50 mM phosphate buffer pH 6.5, 25±2° C., read-out: Solubility pH = 6.5) 6.2 µM (≈ 2.86 µg/mL); (50 mM phosphate buffer pH 7.4, 25±2° C., read-out: Solubility pH = 7.4) 7.08 µM (≈ 3.26 µg/mL).
